Laboratory results from US20260242419A1, “A CYCLIC PEPTIDE FOR TRAPPING INTERLEUKIN-1 BETA” (Merck Sharp & Dohme LLC, priority 2023, published 2026).
Starred links: 1 amine or outer side, 2 acyl side, 3 side chain; linkers in the order of their positions; H or OH if unused. Non-standard residues stand in square brackets, D forms with d. Residues, ends and D or L forms follow the SMILES beside them. Phe(4-(5-CO2H-2-pyrimidyl)) = N[C@@H](Cc1ccc(-c2ncc(C(=O)O)cn2)cc1)C(=O)O; dPro(4R-(4-pyridylmethyl)) = O=C(O)[C@H]1C[C@@H](Cc2ccncc2)CN1; X17 = CN(C)C(=O)c1ccc(-c2ccc(C[C@H](N[*:1])C(=O)[*:2])cc2)cc1; Trp(βS-Me,4-F) = C[C@@H](c1c[nH]c2cccc(F)c12)[C@H](N)C(=O)O; Bip(4'-COOH) = N[C@@H](Cc1ccc(-c2ccc(C(=O)O)cc2)cc1)C(=O)O; Ala(1-bicyclo(1.1.1)pentyl) = N[C@@H](CC12CC(C1)C2)C(=O)O; dPro(4R-Bzl(4-F)) = O=C(O)[C@H]1C[C@@H](Cc2ccc(F)cc2)CN1; X31 = O=C(O)c1ccc([C@@H](O)[C@H](N[*:1])C(=O)[*:2])cc1; Phe(2-Cl,4-COOH) = N[C@@H](Cc1ccc(C(=O)O)cc1Cl)C(=O)O; Ala(piperazin-1-yl) = N[C@@H](CN1CCNCC1)C(=O)O; Ala(pyrimidin-5-yl) = N[C@@H](Cc1cncnc1)C(=O)O; Phe(4-COOH) = N[C@@H](Cc1ccc(C(=O)O)cc1)C(=O)O; X34 = C[N+](C)(C)CC[C@H](N[*:1])C(=O)[*:2]; Pro(cis-4-F) = O=C(O)[C@@H]1C[C@H](F)CN1; Ala(4-THP) = N[C@@H](CC1CCOCC1)C(=O)O; AEF = NCCOc1ccc(C[C@H](N)C(=O)O)cc1; cisHyp = O=C(O)[C@@H]1C[C@H](O)CN1; d(αMeD) = C[C@@](N)(CC(=O)O)C(=O)O; 4Pal = N[C@@H](Cc1ccncc1)C(=O)O; aThr = C[C@H](O)[C@H](N)C(=O)O; d(αMeS) = C[C@@](N)(CO)C(=O)O; Cba = N[C@@H](CC1CCC1)C(=O)O; Dab = NCC[C@H](N)C(=O)O; Nva = CCC[C@H](N)C(=O)O; Aib = CC(C)(N)C(=O)O

Biological target: T1, IL-1β (Homo sapiens, UniProt P01584)
T1 construct: purchased BioLegend 579404
Experiment: IL-6 assay in MRC5 cells: inhibition of IL-1β induced IL-6 secretion (AlphaLISA)
Format: cell-based
Settings: inhibition of IL-1β induced IL-6 secretion in MRC5 cells; compound pre-incubated 1 hour with recombinant human IL-1β; read-out: MRC5 IC50
Procedure, shortened: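 Compound was pre-incubated 1 h at ambient temperature with recombinant human IL-1β at 2λ EC80 before adding human lung fibroblast MRC5 cells (3000/well) in EMEM with 0.025% BSA. After overnight culture at 37 °C, 5% CO2, secreted IL-6 in conditioned medium was measured by AlphaLISA; IC50 from 4-parameter logistic fits.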

T1 sequence (P01584 117-269): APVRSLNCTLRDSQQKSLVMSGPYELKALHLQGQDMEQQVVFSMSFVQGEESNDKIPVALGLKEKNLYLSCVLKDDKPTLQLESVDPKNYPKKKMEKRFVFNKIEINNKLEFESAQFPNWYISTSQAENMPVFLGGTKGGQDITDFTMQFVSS

IC50 | Compound
0.012 nM | C[C@@H](c1c[nH]c2cccc(F)c12)[C@@H]1NC(=O)[C@@H]2C[C@H](F)CN2C(=O)CNC(=O)[C@H](Cc2ccc(C(=O)O)cc2)NC(=O)[C@H](Cc2ccncc2)NC(=O)[C@H](Cc2ccc(-c3ccc(C(=O)N(C)C)cc3)cc2)NC(=O)[C@H]2C[C@@H](Cc3ccncc3)CN2C(=O)CNC(=O)[C@H](CCN)NC(=O)[C@H](CCC(N)=O)NC(=O)[C@H](CC2CCOCC2)NC(=O)[C@@](C)(CC(=O)O)NC(=O)[C@H](Cc2c[nH]c3ccccc23)NC(=O)[C@H](CO)NC(=O)C(C)(C)NC1=O [Example 295] (cyclo([X17][4Pal][Phe(4-COOH)]G[Pro(cis-4-F)][Trp(βS-Me,4-F)][Aib]SW[d(αMeD)][Ala(4-THP)]Q[Dab]G[dPro(4R-(4-pyridylmethyl))]))
0.013 nM | CCC[C@@H]1NC(=O)[C@@](C)(CC(=O)O)NC(=O)[C@H](Cc2c[nH]c3ccccc23)NC(=O)[C@H](CO)NC(=O)C(C)(C)NC(=O)[C@H]([C@@H](C)c2c[nH]c3cccc(F)c23)NC(=O)[C@@H]2C[C@H](F)CN2C(=O)CNC(=O)[C@H](Cc2ccc(C(=O)O)cc2)NC(=O)[C@H](Cc2ccncc2)NC(=O)[C@H](Cc2ccc(-c3ccc(C(=O)O)cc3)cc2)NC(=O)[C@H]2C[C@@H](Cc3ccncc3)CN2C(=O)CNC(=O)[C@H](CCN)NC(=O)[C@H](CCC(N)=O)NC1=O [Example 253] (cyclo([Bip(4'-COOH)][4Pal][Phe(4-COOH)]G[Pro(cis-4-F)][Trp(βS-Me,4-F)][Aib]SW[d(αMeD)][Nva]Q[Dab]G[dPro(4R-(4-pyridylmethyl))]))
0.018 nM | C[C@@H](c1c[nH]c2cccc(F)c12)[C@@H]1NC(=O)[C@@H]2C[C@H](F)CN2C(=O)CNC(=O)[C@H]([C@H](O)c2ccc(C(=O)O)cc2)NC(=O)[C@H](Cc2ccncc2)NC(=O)[C@H](Cc2ccc(-c3ccc(C(=O)O)cc3)cc2)NC(=O)[C@H]2C[C@@H](Cc3ccc(F)cc3)CN2C(=O)CNC(=O)[C@H](CCN)NC(=O)[C@H](CCC(N)=O)NC(=O)[C@H](Cc2cncnc2)NC(=O)C(C)(C)NC(=O)[C@H](Cc2c[nH]c3ccccc23)NC(=O)[C@H](CO)NC(=O)C(C)(C)NC1=O [Example 275] (cyclo([Bip(4'-COOH)][4Pal][X31]G[Pro(cis-4-F)][Trp(βS-Me,4-F)][Aib]SW[Aib][Ala(pyrimidin-5-yl)]Q[Dab]G[dPro(4R-Bzl(4-F))]))

Same assay, conditions: inhibition of IL-1β induced IL-6 secretion in MRC5 cells; read-out: MRC5 IC50

IC50 | Compound
0.017 nM | CC(=O)NCCOc1ccc(C[C@@H]2NC(=O)[C@H]3C[C@@H](Cc4ccncc4)CN3C(=O)CNC(=O)[C@H](CCN)NC(=O)[C@H](CCC(N)=O)NC(=O)[C@H](Cc3cncnc3)NC(=O)C(C)(C)NC(=O)[C@H](Cc3c[nH]c4ccccc34)NC(=O)[C@H](CO)NC(=O)C(C)(C)NC(=O)[C@H]([C@@H](C)c3c[nH]c4cccc(F)c34)NC(=O)[C@@H]3C[C@H](F)CN3C(=O)CNC(=O)[C@H](Cc3ccc(C(=O)O)cc3Cl)NC(=O)[C@H](Cc3ccncc3)NC2=O)cc1 [Example 367] (cyclo([AEF](Ac)[4Pal][Phe(2-Cl,4-COOH)]G[Pro(cis-4-F)][Trp(βS-Me,4-F)][Aib]SW[Aib][Ala(pyrimidin-5-yl)]Q[Dab]G[dPro(4R-(4-pyridylmethyl))]))
0.021 nM | C[C@@H](c1c[nH]c2cccc(F)c12)[C@@H]1NC(=O)[C@@H]2C[C@H](F)CN2C(=O)CNC(=O)[C@H](Cc2ccc(C(=O)O)cc2)NC(=O)[C@H](Cc2ccncc2)NC(=O)[C@H](Cc2ccc(-c3ccc(C(=O)O)cc3)cc2)NC(=O)[C@H]2C[C@@H](Cc3ccc(F)cc3)CN2C(=O)CNC(=O)[C@H](CCN)NC(=O)[C@H](CCC(N)=O)NC(=O)[C@H](Cc2cncnc2)NC(=O)C(C)(C)NC(=O)[C@H](Cc2c[nH]c3ccccc23)NC(=O)[C@H](CCC(=O)O)NC(=O)[C@@](C)(CO)NC1=O [Example 19] (cyclo([Bip(4'-COOH)][4Pal][Phe(4-COOH)]G[Pro(cis-4-F)][Trp(βS-Me,4-F)][d(αMeS)]EW[Aib][Ala(pyrimidin-5-yl)]Q[Dab]G[dPro(4R-Bzl(4-F))]))

Further lines, the compound ahead of its results:

Compound | IC50
C[C@H](O)[C@@H]1NC(=O)[C@@](C)(CC(=O)O)NC(=O)[C@H](Cc2c[nH]c3ccccc23)NC(=O)[C@H](CO)NC(=O)C(C)(C)NC(=O)[C@H]([C@@H](C)c2c[nH]c3cccc(F)c23)NC(=O)[C@@H]2C[C@H](F)CN2C(=O)CNC(=O)[C@H](Cc2ccc(C(=O)O)cc2Cl)NC(=O)[C@H](Cc2ccncc2)NC(=O)[C@H](Cc2ccc(-c3ccc(C(=O)O)cc3)cc2)NC(=O)[C@H]2C[C@@H](Cc3ccncc3)CN2C(=O)CNC(=O)[C@H](CCN)NC(=O)[C@H](CCC(N)=O)NC1=O [Example 356] (cyclo([Bip(4'-COOH)][4Pal][Phe(2-Cl,4-COOH)]G[Pro(cis-4-F)][Trp(βS-Me,4-F)][Aib]SW[d(αMeD)][aThr]Q[Dab]G[dPro(4R-(4-pyridylmethyl))])) | 0.011 nM
C[C@@H](c1c[nH]c2cccc(F)c12)[C@@H]1NC(=O)[C@@H]2C[C@H](F)CN2C(=O)CNC(=O)[C@H](Cc2ccc(C(=O)O)cc2)NC(=O)[C@H](CC23CC(C2)C3)NC(=O)[C@H](Cc2ccc(-c3ccc(C(=O)O)cc3)cc2)NC(=O)[C@H]2C[C@@H](Cc3ccc(F)cc3)CN2C(=O)CNC(=O)[C@H](CCN)NC(=O)[C@H](CCC(N)=O)NC(=O)[C@H](CN2CCNCC2)NC(=O)[C@@](C)(CO)NC(=O)[C@H](Cc2c[nH]c3ccccc23)NC(=O)[C@H](CO)NC(=O)C(C)(C)NC1=O [Example 171] (cyclo([Bip(4'-COOH)][Ala(1-bicyclo(1.1.1)pentyl)][Phe(4-COOH)]G[Pro(cis-4-F)][Trp(βS-Me,4-F)][Aib]SW[d(αMeS)][Ala(piperazin-1-yl)]Q[Dab]G[dPro(4R-Bzl(4-F))])) | 0.016 nM
C[C@@H](c1c[nH]c2cccc(F)c12)[C@@H]1NC(=O)[C@@H]2C[C@H](F)CN2C(=O)CNC(=O)[C@H](Cc2ccc(C(=O)O)cc2)NC(=O)[C@H](CC23CC(C2)C3)NC(=O)[C@H](Cc2ccc(-c3ncc(C(=O)O)cn3)cc2)NC(=O)[C@H]2C[C@@H](Cc3ccc(F)cc3)CN2C(=O)CNC(=O)[C@H](CCN)NC(=O)[C@H](CCC(N)=O)NC(=O)[C@H](Cc2cncnc2)NC(=O)C(C)(C)NC(=O)[C@H](Cc2c[nH]c3ccccc23)NC(=O)[C@H](CO)NC(=O)C(C)(C)NC1=O [Example 83] (cyclo([Phe(4-(5-CO2H-2-pyrimidyl))][Ala(1-bicyclo(1.1.1)pentyl)][Phe(4-COOH)]G[Pro(cis-4-F)][Trp(βS-Me,4-F)][Aib]SW[Aib][Ala(pyrimidin-5-yl)]Q[Dab]G[dPro(4R-Bzl(4-F))])) | 0.045 nM
C[C@@H](c1c[nH]c2cccc(F)c12)[C@@H]1NC(=O)[C@@H]2C[C@H](F)CN2C(=O)CNC(=O)[C@H](Cc2ccc(C(=O)O)cc2)NC(=O)[C@H](Cc2ccncc2)NC(=O)[C@H](Cc2ccc(-c3ccc(C(=O)O)cc3)cc2)NC(=O)[C@H]2C[C@@H](Cc3ccc(F)cc3)CN2C(=O)CNC(=O)[C@H](CCN)NC(=O)[C@H](CCC(N)=O)NC(=O)[C@H](CC[N+](C)(C)C)NC(=O)C(C)(C)NC(=O)[C@H](Cc2c[nH]c3ccccc23)NC(=O)[C@H](CO)NC(=O)C(C)(C)NC1=O [Example 314] (cyclo([Bip(4'-COOH)][4Pal][Phe(4-COOH)]G[Pro(cis-4-F)][Trp(βS-Me,4-F)][Aib]SW[Aib][X34]Q[Dab]G[dPro(4R-Bzl(4-F))])) | 0.02 nM
C[C@@H](c1c[nH]c2cccc(F)c12)[C@@H]1NC(=O)[C@@H]2C[C@H](O)CN2C(=O)CNC(=O)[C@H](Cc2ccc(C(=O)O)cc2)NC(=O)[C@H](Cc2ccncc2)NC(=O)[C@H](Cc2ccc(-c3ccc(C(=O)O)cc3)cc2)NC(=O)[C@H]2C[C@@H](Cc3ccncc3)CN2C(=O)CNC(=O)[C@H](CCN)NC(=O)[C@H](CCC(N)=O)NC(=O)[C@H](CC2CCOCC2)NC(=O)[C@@](C)(CO)NC(=O)[C@H](Cc2c[nH]c3ccccc23)NC(=O)[C@H](CO)NC(=O)C(C)(C)NC1=O [Example 213] (cyclo([Bip(4'-COOH)][4Pal][Phe(4-COOH)]G[cisHyp][Trp(βS-Me,4-F)][Aib]SW[d(αMeS)][Ala(4-THP)]Q[Dab]G[dPro(4R-(4-pyridylmethyl))])) | 0.021 nM
C[C@@H](c1c[nH]c2cccc(F)c12)[C@@H]1NC(=O)[C@@H]2C[C@H](O)CN2C(=O)CNC(=O)[C@H](Cc2ccc(C(=O)O)cc2)NC(=O)[C@H](CC2CCC2)NC(=O)[C@H](Cc2ccc(-c3ccc(C(=O)O)cc3)cc2)NC(=O)[C@H]2C[C@@H](Cc3ccncc3)CN2C(=O)CNC(=O)[C@H](CCN)NC(=O)[C@H](CCC(N)=O)NC(=O)[C@H](Cc2cncnc2)NC(=O)[C@@](C)(CC(=O)O)NC(=O)[C@H](Cc2c[nH]c3ccccc23)NC(=O)[C@H](CO)NC(=O)C(C)(C)NC1=O [Example 164] (cyclo([Bip(4'-COOH)][Cba][Phe(4-COOH)]G[cisHyp][Trp(βS-Me,4-F)][Aib]SW[d(αMeD)][Ala(pyrimidin-5-yl)]Q[Dab]G[dPro(4R-(4-pyridylmethyl))])) | 0.039 nM
C[C@@H](c1c[nH]c2cccc(F)c12)[C@@H]1NC(=O)[C@@H]2C[C@H](F)CN2C(=O)CNC(=O)[C@H](Cc2ccc(C(=O)O)cc2)NC(=O)[C@H](CC23CC(C2)C3)NC(=O)[C@H](Cc2ccc(-c3ncc(C(=O)O)cn3)cc2)NC(=O)[C@H]2C[C@@H](Cc3ccncc3)CN2C(=O)CNC(=O)[C@H](CCN)NC(=O)[C@H](CCC(N)=O)NC(=O)[C@H](Cc2ccncc2)NC(=O)C(C)(C)NC(=O)[C@H](Cc2c[nH]c3ccccc23)NC(=O)[C@H](CO)NC(=O)C(C)(C)NC1=O [Example 89] (cyclo([Phe(4-(5-CO2H-2-pyrimidyl))][Ala(1-bicyclo(1.1.1)pentyl)][Phe(4-COOH)]G[Pro(cis-4-F)][Trp(βS-Me,4-F)][Aib]SW[Aib][4Pal]Q[Dab]G[dPro(4R-(4-pyridylmethyl))])) | 0.045 nM
